Laboratory results reported in ChEMBL document CHEMBL1152885 (Bioorg Med Chem Lett, 2009).
pKi: −log10 of the molar value.

Key:
Carbonic anhydrase 1 = Carbonic anhydrase 1 (Homo sapiens, UniProt P00915)
Carbonic anhydrase 3 = Carbonic anhydrase 3 (Homo sapiens, UniProt P07451)
Carbonic anhydrase 4 = Carbonic anhydrase 4 (Homo sapiens, UniProt P22748)
[1] = molecular target: Carbonic anhydrase 5B, mitochondrial (Homo sapiens, UniProt Q9Y2D0)
Carbonic anhydrase 6 = Carbonic anhydrase 6 (Homo sapiens, UniProt P23280)
Sequence of Carbonic anhydrase 6 (P23280 whole entry): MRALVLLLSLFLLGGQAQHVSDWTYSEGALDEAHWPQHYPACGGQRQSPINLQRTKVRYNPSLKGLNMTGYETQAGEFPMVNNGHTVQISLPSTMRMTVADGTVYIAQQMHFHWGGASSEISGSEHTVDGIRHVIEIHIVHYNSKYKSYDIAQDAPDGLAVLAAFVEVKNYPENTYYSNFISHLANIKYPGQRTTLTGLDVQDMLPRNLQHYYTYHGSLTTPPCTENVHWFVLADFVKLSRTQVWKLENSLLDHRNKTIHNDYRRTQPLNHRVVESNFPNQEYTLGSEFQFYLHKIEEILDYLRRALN

Carbonic anhydrase 9 = Carbonic anhydrase 9 (Homo sapiens, UniProt Q16790)
Carbonic anhydrase 12 = Carbonic anhydrase 12 (Homo sapiens, UniProt O43570)
Sequence of Carbonic anhydrase 12 (O43570 whole entry): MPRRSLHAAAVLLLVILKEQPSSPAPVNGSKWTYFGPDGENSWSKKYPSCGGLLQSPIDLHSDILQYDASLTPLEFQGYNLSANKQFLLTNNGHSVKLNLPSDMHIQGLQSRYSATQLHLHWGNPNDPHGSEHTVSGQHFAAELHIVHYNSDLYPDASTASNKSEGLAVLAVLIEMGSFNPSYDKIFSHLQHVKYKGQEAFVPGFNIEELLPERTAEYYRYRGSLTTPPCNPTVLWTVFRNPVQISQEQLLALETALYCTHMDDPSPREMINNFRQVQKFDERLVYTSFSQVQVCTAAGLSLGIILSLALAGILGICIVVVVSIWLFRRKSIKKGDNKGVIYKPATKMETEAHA

Carbonic anhydrase 13 = Carbonic anhydrase 13 (Mus musculus, UniProt Q9D6N1)
Sequence of Carbonic anhydrase 13 (Q9D6N1 whole entry): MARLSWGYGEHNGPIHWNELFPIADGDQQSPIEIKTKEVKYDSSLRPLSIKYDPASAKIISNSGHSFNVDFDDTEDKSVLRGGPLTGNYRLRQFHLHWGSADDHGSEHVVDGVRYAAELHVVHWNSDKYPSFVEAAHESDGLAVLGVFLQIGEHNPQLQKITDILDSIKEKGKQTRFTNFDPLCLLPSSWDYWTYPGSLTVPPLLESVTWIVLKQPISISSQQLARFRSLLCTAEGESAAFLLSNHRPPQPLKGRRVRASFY

Carbonic anhydrase 14 = Carbonic anhydrase 14 (Homo sapiens, UniProt Q9ULX7)
Sequence of Carbonic anhydrase 14 (Q9ULX7 whole entry): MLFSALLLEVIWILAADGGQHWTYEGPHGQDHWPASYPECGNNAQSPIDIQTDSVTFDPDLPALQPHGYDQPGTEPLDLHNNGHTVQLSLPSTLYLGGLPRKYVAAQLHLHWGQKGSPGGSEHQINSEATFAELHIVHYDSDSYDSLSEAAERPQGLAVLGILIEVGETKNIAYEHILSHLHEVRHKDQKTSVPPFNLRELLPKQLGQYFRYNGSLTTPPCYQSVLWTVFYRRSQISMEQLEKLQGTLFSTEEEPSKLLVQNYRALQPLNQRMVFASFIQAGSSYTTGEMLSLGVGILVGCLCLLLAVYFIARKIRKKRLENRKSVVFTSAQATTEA

Sequence of Carbonic anhydrase 1 (P00915 whole entry): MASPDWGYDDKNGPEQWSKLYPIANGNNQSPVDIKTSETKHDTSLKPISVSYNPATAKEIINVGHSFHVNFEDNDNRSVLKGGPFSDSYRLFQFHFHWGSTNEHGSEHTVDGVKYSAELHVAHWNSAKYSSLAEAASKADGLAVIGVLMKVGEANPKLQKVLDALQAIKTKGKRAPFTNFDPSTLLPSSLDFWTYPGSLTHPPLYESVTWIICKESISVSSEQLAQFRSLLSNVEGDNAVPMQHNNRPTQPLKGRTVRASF
Sequence of Carbonic anhydrase 3 (P07451 whole entry): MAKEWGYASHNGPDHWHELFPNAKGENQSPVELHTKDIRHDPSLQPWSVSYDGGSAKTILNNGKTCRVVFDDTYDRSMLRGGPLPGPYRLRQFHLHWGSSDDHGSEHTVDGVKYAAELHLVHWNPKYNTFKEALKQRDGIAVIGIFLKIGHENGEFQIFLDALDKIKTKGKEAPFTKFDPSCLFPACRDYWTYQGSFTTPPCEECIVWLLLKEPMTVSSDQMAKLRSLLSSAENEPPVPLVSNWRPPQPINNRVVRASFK
Sequence of Carbonic anhydrase 4 (P22748 whole entry): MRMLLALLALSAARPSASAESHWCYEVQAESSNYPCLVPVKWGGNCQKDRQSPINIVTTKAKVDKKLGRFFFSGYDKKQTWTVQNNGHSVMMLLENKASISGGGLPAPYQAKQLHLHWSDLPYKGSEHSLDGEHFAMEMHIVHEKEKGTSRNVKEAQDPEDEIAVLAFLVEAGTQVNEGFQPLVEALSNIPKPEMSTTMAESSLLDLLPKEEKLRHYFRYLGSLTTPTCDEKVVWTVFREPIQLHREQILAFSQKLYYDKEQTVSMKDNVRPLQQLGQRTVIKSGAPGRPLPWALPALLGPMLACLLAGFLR
Sequence of Carbonic anhydrase 5B, mitochondrial (Q9Y2D0 whole entry): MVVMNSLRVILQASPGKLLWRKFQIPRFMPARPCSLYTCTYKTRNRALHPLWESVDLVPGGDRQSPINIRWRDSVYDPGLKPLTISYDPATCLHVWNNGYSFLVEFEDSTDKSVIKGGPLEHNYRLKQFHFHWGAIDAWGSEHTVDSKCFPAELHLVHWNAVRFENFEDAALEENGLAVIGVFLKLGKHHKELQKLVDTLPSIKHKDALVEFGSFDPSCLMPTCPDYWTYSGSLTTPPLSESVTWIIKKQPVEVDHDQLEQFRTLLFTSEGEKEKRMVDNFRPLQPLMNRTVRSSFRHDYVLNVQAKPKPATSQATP

SMILES: NS(=O)(=O)c1ccc2[nH]c(-c3cscn3)nc2c1
- pKi (Carbonic anhydrase 1): 7.29
- pKi (Carbonic anhydrase 3): 4.46
- pKi (Carbonic anhydrase 4): 7.31
- pKi [1]: 7.39
- pKi (Carbonic anhydrase 6): 7.60
- pKi (Carbonic anhydrase 9): 8.19
- pKi (Carbonic anhydrase 12): 7.75
- pKi (Carbonic anhydrase 13): 5.31
- pKi (Carbonic anhydrase 14): 6.37
